Results: patent publication US10947188B2, “Small molecule ferroptosis inducers” (THE TRUSTEES OF COLUMBIA UNIVERSITY IN THE CITY OF NEW YORK, priority 2016, dated 2021)

Tested on: HT-1080
Experiment: Modulatory profiling: Alamar Blue viability, lethal compound cotreated with death modulator (EC50, AUC); on AUC HT.BHA: reference of the scale not given here; on AUC HT.EGTA: reference of the scale not given here
Type: cell-based
Set-up: AUC, modulator HT.3MA / AUC, modulator HT.ALLN / AUC HT.ATA / AUC HT.ActD / AUC HT.BHA / AUC HT.BHT / AUC HT.BocD / AUC HT.CHX / AUC HT.Co2+ / AUC HT.DPQ / AUC HT.EGTA / AUC HT.Lmim / AUC HT.NAD+ / AUC HT.Nec-1 / AUC HT.SP600125 / AUC HT.TLCK / AUC HT.U0126: unit not given beside the values
Details: for AUC HT.ATA: HT-1080, modulator ATA; for AUC HT.ActD: HT-1080, modulator ActD; for AUC HT.BHA: HT-1080, modulator BHA; for AUC HT.BHT: HT-1080, modulator BHT; for AUC HT.BocD: HT-1080, modulator BocD; for AUC HT.CHX: HT-1080, modulator CHX; for AUC HT.Co2+: HT-1080, modulator Co2+; for AUC HT.CspA: HT-1080, modulator CspA; for AUC HT.DPQ: HT-1080, modulator DPQ; for AUC HT.EGTA: HT-1080, modulator EGTA; for AUC HT.Gd3+: HT-1080, modulator Gd3+; for AUC HT.LNAME: HT-1080, modulator LNAME; for AUC HT.Lmim: HT-1080, modulator Lmim; for AUC HT.NAD+: HT-1080, modulator NAD+; for AUC HT.NMMA: HT-1080, modulator NMMA; for HT.atoc (AUC) / HT.bCarotene (AUC) / HT.deferox (AUC) / HT.digoxin (AUC) / HT.trolox (AUC) / HT.zVAD (AUC) / EC50: HT-1080; for HT.atoc (AUC): modulator atoc; for HT.bCarotene (AUC): modulator bCarotene; for HT.deferox (AUC): modulator deferox; for HT.digoxin (AUC): modulator digoxin; for HT.trolox (AUC): modulator trolox; for HT.zVAD (AUC): modulator zVAD; for effect of ferroptosis inhibitors (iron chelators and lipophilic antioxidants) on lethality in modulatory profiling: HT-1080 and BJeLR; for AUC, modulator HT.3MA / AUC, modulator HT.ALLN: HT-1080 cells, modulatory profile value (AUC); for AUC, modulator HT.3MA: lethal compound cotreated with modulator 3MA; for AUC, modulator HT.ALLN: lethal compound cotreated with modulator ALLN; for EC50: Homo sapiens, HT-1080, 48 h, 48 h; for AUC HT.Nec-1: HT-1080, modulator Nec-1; for AUC HT.Pepstatin: HT-1080, modulator Pepstatin; for AUC HT.SP600125: HT-1080, modulator SP600125; for AUC HT.TLCK: HT-1080, modulator TLCK; for AUC HT.U0126: HT-1080, modulator U0126
[1] = cotreated with antioxidant Atoc
[2] = cotreated with antioxidant Trolox
[3] = cotreated with iron-chelator Deferoxamine
[4] = cotreated with iron-chelator Lmim

| SMILES | AUC HT.ATA | AUC HT.ActD | AUC HT.BHA | AUC HT.BHT | AUC HT.BocD | AUC HT.CHX | AUC HT.Co2+ | AUC HT.CspA | AUC HT.DPQ | AUC HT.EGTA | AUC HT.Gd3+ | AUC HT.LNAME | AUC HT.Lmim | AUC HT.NAD+ | AUC HT.NMMA | HT.atoc (AUC) | HT.bCarotene (AUC) | HT.deferox (AUC) | HT.digoxin (AUC) | HT.trolox (AUC) | other results |
| --- | --- | --- | --- | --- | --- | --- | --- | --- | --- | --- | --- | --- | --- | --- | --- | --- | --- | --- | --- | --- | --- |
| N/C(=N\OC(=O)C12CC3CC(CC(C3)C1)C2)c1ccccc1 [CIL41] | 0.02643 | −0.09343 | 0.1312 | 0.009338 | −0.01678 | −0.05459 | 0.06389 | 9.4409E−05 | 0.04282 | 0.02946 | −0.02592 | −0.0121 | 0.1377 | −0.008657 | −0.01029 | 0.316 | −0.02182 | 0.1795 | −0.09255 | 0.161 | HT.zVAD (AUC): −0.0167; effect of ferroptosis inhibitors (iron chelators and lipophilic antioxidants) on lethality in modulatory profiling: suppression by canonical ferroptosis inhibitors; AUC, modulator HT.3MA: 0.04521; AUC, modulator HT.ALLN: 0.09324; EC50 (DMSO): 5.67 µM; EC50 (cotreated with MEK inh U0126): 20.9 µM; EC50 [1]: 50 µM; EC50 (cotreated with antioxidant BHA): 26 µM; EC50 (cotreated with antioxidant BHT): 12.6 µM; EC50 [2]: 23.4 µM; EC50 [3]: 124 µM; EC50 [4]: 69.8 µM |
| O=C1c2ccccc2-c2onc3ccc(Oc4ccccc4)c1c23 [CIL6] | 0.007654 | −0.008928 | −0.007636 | −0.06114 | 0.076 | 0.161 | 0.04208 | −0.01275 | 0.04323 | 0.01026 | −0.02897 | 0.0157 | −0.01064 | 0.04899 | −0.02292 | 0.1204 | −0.0173 | 0.02051 | 0.009607 | −0.01697 | AUC HT.Nec-1: 0.01299; AUC HT.Pepstatin: 0.0188; AUC HT.SP600125: −0.01195; AUC HT.TLCK: −0.00546; AUC HT.U0126: 0.04846; HT.zVAD (AUC): −0.01676; AUC, modulator HT.3MA: 0.06096; AUC, modulator HT.ALLN: 0.04648 |
| O=C(CCl)N(c1ccccc1)c1c[nH]c2ccccc12 [CIL69] | −0.005358 | −0.004265 | 0.2489 | 0.2227 | −0.03457 | 0.03395 | 0.07132 | 0.009848 | −0.006588 | 0.06032 | −0.01446 | −0.04538 | 0.1792 | 0.03637 | −0.04048 | 0.3456 | −0.0167 | 0.3005 | −0.0261 | 0.2631 | HT.zVAD (AUC): −0.0004734; effect of ferroptosis inhibitors (iron chelators and lipophilic antioxidants) on lethality in modulatory profiling: suppression by canonical ferroptosis inhibitors; EC50 (DMSO): 0.551 µM; EC50 (cotreated with MEK inh U0126): 5.75 µM; EC50 [1]: 6.13 µM; EC50 (cotreated with antioxidant BHA): 4.79 µM; EC50 (cotreated with antioxidant BHT): 3.28 µM; EC50 [2]: 4.26 µM; EC50 [3]: 9.29 µM; EC50 [4]: 4.79 µM |
| O=c1c(Cl)c(Cl)cnn1-c1ccc(Cl)c(C(F)(F)F)c1 [CIL25] | 0.06489 | −0.03585 | −0.01547 | −0.1041 | 0.05183 | −0.01604 | −0.06128 | 0.01073 | 0.02629 | 0.01624 | 0.01713 | 0.02663 | 0.01684 | −0.03051 | −0.006639 | 0.04405 | 0.009082 | 0.07763 | −0.007149 | −0.02562 | HT.zVAD (AUC): 0.03342; AUC, modulator HT.3MA: 0.01605; AUC, modulator HT.ALLN: −0.0257 |
| COc1cccc2c1C(=O)c1c(O)c3c(c(O)c1C2=O)C[C@@](O)(C(=O)CO)C[C@@H]3O[C@H]1C[C@H](N)[C@H](O)[C@H](C)O1 [Doxorubicin] | 0.02841 | 0.007993 | 0.02167 | −0.06815 | 0.05959 | 0.08993 | 0.2627 | −0.1098 | 0.01107 | 0.03492 | 0.03741 | 0.006685 | 0.08822 | 0.1872 | 0.02832 | 0.00993 | 0.01512 | 0.2044 | 0.1981 | −0.01413 | AUC HT.Nec-1: 0.007577; AUC HT.Pepstatin: 0.008958; AUC HT.SP600125: −0.02148; AUC HT.TLCK: 0.0633; AUC HT.U0126: −0.02036; HT.zVAD (AUC): 0.05138; AUC, modulator HT.3MA: 0.03088; AUC, modulator HT.ALLN: 0.03102 |
| COc1ccc(-n2nnnc2S(=O)(=O)CC(=O)N2CCCCC2)cc1 [CIL48] | 0.04684 | 0.01673 | −0.06966 | −0.1547 | −0.03823 | 0.0148 | 0.0307 | 0.002689 | −0.0003728 | 0.01715 | −0.003556 | −0.04087 | −0.01757 | −0.05465 | −0.01902 | 0.09021 | −0.00845 | 0.1268 | −0.01513 | −0.02612 | HT.zVAD (AUC): −0.005053; AUC, modulator HT.3MA: 0.0854; AUC, modulator HT.ALLN: 0.1611 |
| CCCCNc1c(Cl)cnn(-c2ccccc2)c1=O [CIL36] | 0.05274 | −0.04409 | 0.0054 | −0.1272 | 0.002169 | −0.06645 | 0.02821 | 0.01593 | 0.05193 | −0.01311 | −0.04267 | −0.02799 | 0.004214 | −0.06378 | −0.009501 | 0.08942 | −0.005276 | 0.06452 | −0.03557 | 0.002425 | HT.zVAD (AUC): −0.003588; AUC, modulator HT.3MA: 0.08327; AUC, modulator HT.ALLN: 0.1422 |
| COc1cc([C@@H]2c3cc4c(cc3[C@@H](O[C@@H]3O[C@@H]5CO[C@@H](C)O[C@H]5[C@H](O)[C@H]3O)[C@H]3COC(=O)[C@H]23)OCO4)cc(OC)c1O [Etoposide] | −0.0363 | −0.09944 | 0.04757 | −0.0005481 | 0.05886 | 0.113 | 0.3926 | −0.177 | 0.006422 | 0.02457 | 0.02668 | 0.005444 | 0.05001 | 0.0527 | 0.01603 | −0.006276 | 0.00393 | 0.1428 | 0.1311 | 0.01328 | AUC HT.Nec-1: −0.005949; AUC HT.Pepstatin: −0.001737; AUC HT.SP600125: 0.00478; AUC HT.TLCK: 0.1489; AUC HT.U0126: −0.02627; HT.zVAD (AUC): 0.03817; AUC, modulator HT.3MA: 0.007208; AUC, modulator HT.ALLN: 0.03277 |
| COc1cc([C@@H]2c3cc4c(cc3[C@H](O)[C@H]3COC(=O)[C@H]23)OCO4)cc(OC)c1OC [Podophyllotoxin] | 0.1206 | −0.0009195 | 0.02739 | 0.0008586 | 0.0984 | 0.07197 | 0.1102 | −0.07592 | 0.005964 | 0.01145 | 0.00916 | −0.004926 | 0.1098 | 0.1318 | 0.000472 | −0.02023 | 0.0009225 | 0.3104 | 0.1098 | 0.0103 | AUC HT.Nec-1: −0.0001825; AUC HT.Pepstatin: −0.0005129; AUC HT.SP600125: −0.02768; AUC HT.TLCK: 0.06978; AUC HT.U0126: 0.1354; HT.zVAD (AUC): 0.09402; AUC, modulator HT.3MA: 0.001351; AUC, modulator HT.ALLN: 0.1572 |
| O=P(Oc1ccccc1)(Oc1ccccc1)O[C@@H]1C=CS(=O)(=O)C1 [CIL44] | 0.0592 | 0.01649 | −0.02559 | −0.1007 | −0.0552 | 0.02874 | −0.04658 | −0.01586 | −0.01669 | −0.007267 | −0.01147 | −0.02505 | −0.007614 | −0.07144 | −0.0419 | 0.04386 | −0.02012 | 0.1041 | 0.01992 | −0.02106 | HT.zVAD (AUC): 0.01751; AUC, modulator HT.3MA: 0.07356; AUC, modulator HT.ALLN: 0.1392 |
| COc1cccc(-n2nnnc2S(C)(=O)=O)c1 [CIL16] | 0.003965 | 0.01875 | −0.05937 | −0.1721 | 0.1414 | 0.08543 | 0.155 | 0.008389 | −0.02205 | −0.0002723 | −0.0407 | 0.01974 | −0.05546 | 0.05126 | −0.03154 | 0.1025 | −0.01322 | 0.05919 | −0.01884 | −0.01524 | HT.zVAD (AUC): 0.005482; AUC, modulator HT.3MA: 0.02993; AUC, modulator HT.ALLN: −0.03286 |
